Like-named read-outs stand apart in the source and are kept apart here. Ends that are not written are not given here.
How the values were obtained:
[1] = target: T1, human recombinant NOP receptor (Homo sapiens, UniProt P41146); assay: cell-based; type: cell-based
T1 construct: expressed in transfected cells

mouse vas deferens = assay: electrically stimulated mouse vas deferens bioassay; conditions: Table 2; for mVD Emax ± SEM: percent of the control twitch, mean ± SEM of at least 4 separate experiments, footnote a: concentration response curve incomplete due to low potency
Procedure: The experiments were performed on the mouse vas deferens (mVD). The tissues were taken from male CD-1 mice 16–18 g (Harlan, Ud, Italy). Mice were housed in 425 × 266 × 155 mm cages (Techniplast, Mi, Italy), 8 per cage, all under standard conditions (22 °C, 55% humidity, 12 h light/dark cycle, light on at 7:00 h), with food for mice (4RF, Mucedola, Mi, Italy) and water ad libitum. A mouse red house (Tecniplast, Va, Italy) and nesting materials were present in each cage for mice. The day of the experiment the animals were sacrificed with CO2 overdose. The experimental protocol was approved by the Ethical Committee for the Use of Laboratory Animals of the University of Ferrara and by the Italian Ministry of Health (authorization number 9927, 19/04/2013). The animals were treated in accordance with the European Communities Council directives (2010/63/EU) and national regulations (D.L. 26/2014). Bioassay experiments were performed as previously described. The tissues were suspended in 5 ml organ bath containing Krebs solution (composition in mM: NaCl 118.5, KCl 4.7, KH2PO4 1.2, NaHCO3 25, CaCl2 2.5, glucose 10). The Krebs solution was oxygenated with 95% O2 and 5% CO2. The temperature was set at 33 °C. At resting tension 0.3 g was applied to the mVD. […] The electrically evoked contractions were measured isotonically by means of Basile strain gauge transducers (Basile 7006; srl Ugo Basile, Varese, Italy) and recorder with a computer – based acquisition system (Power Lab 8, ADInstruments, Colorado Springs, USA). […]
The pharmacological terminology adopted in this paper is consistent with IUPHAR recommendations. All data are expressed as the mean ± standard error of the mean (SEM) of n experiments. […] In calcium mobilization experiments, maximum change in fluorescence, expressed as percent over the baseline fluorescence, was used to determine agonist response. Electrically stimulated tissues data are expressed as % of the control twitch induced by electrical field stimulation. […]

T1 sequence (P41146 whole entry): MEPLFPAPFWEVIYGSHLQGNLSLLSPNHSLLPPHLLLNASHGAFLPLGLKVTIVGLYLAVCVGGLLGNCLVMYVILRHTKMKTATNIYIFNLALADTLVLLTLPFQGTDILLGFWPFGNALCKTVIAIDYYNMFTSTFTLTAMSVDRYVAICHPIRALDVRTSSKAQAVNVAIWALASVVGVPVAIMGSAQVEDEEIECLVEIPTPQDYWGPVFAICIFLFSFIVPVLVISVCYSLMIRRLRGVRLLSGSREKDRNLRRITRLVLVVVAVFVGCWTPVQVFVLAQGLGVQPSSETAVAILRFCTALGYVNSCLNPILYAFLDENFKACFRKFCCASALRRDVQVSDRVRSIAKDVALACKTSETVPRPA

In the case of “FGGFTGARKSAR-NH2 [compound 10, N/OFQ(1-12)-NH2] [listing 1 of 2 here]”, the EC50 ([1]; Ca2+ mobilization pEC50 (CL95%)) is reported as 0.2 nM.
“FGGFTGARKSAR-NH2 [compound 10, N/OFQ(1-12)-NH2] [listing 2 of 2 here]” gave an Emax ([1]; CHO, read-out: Ca2+ mobilization Emax ± SEM, SEM) of 204 ± 16%.
“N/OFQ(1-11)-NH2 (FGGFTGARKSA-NH2; UniProt Q13519 130-140, looked up, fragment) [compound 12]” was tested, and the “Ca2+ mobilization Emax ± SEM” value ([1]; SEM) was 182 ± 34% and the “mVD Emax ± SEM” value (mouse vas deferens; SEM) was 65 ± 5%^a.
In the case of N/OFQ(2-12)-NH2 [compound 14], the “Ca2+ mobilization Emax ± SEM” value [1] is reported as “Inactive”, the “Ca2+ mobilization pEC50 (CL95%)” value [1] is reported as “Inactive” and the “mVD pEC50 (CL95%)” value (mouse vas deferens; electrically stimulated mouse vas deferens, Krebs solution, 33 °C, cumulative concentration response curves, mean of at least 4 separate experiments, CL95% in brackets, * P < 0.05 versus N/OFQ(1-13)-NH2) is reported as “inactive”. For the same substance, the “mVD Emax ± SEM” value (mouse vas deferens) was “inactive”.
In the case of “compound 15: heterodimeric derivative N/OFQ(1-12)-N/OFQ(2-12), 2,2′-disulfanediyldiethanamine spacer (chain 1 FGGFTGARKSAR; chain 2 GGFTGARKSAR)”, the “Ca2+ mobilization pEC50 (CL95%)” value [1] is reported as 9.49 (9.07–9.91).
